Test [1] has as its target T1, BACE1 (Homo sapiens, UniProt P56817).
T1 construct: purchased Sigma Aldrich
The test can be described thus: BACE1 inhibition assay (FRET activity assay kit). The class given is biochemical. As to conditions: for inhibition at 1 µM: read-out: Single point inhibition % (SPI1μM).

The target of test [2] is T2, Aβ25–35 (Homo sapiens, UniProt P05067).
T2 construct: Aβ25–35 was bought from Anaspec in powdered form; purchased Anaspec
The test can be described thus: Thioflavin T assay of Aβ25–35 aggregation. The test is classed as biochemical. As to conditions: compound 100 µM co-incubated with Aβ25–35 100 µM, 72 hours, 37 °C. As to the method:
The dye Thioflavin T (ThT), is used to quantify amyloid aggregates. On binding to the beta sheets of amyloid aggregates, the rotation of the ThT rings is hampered thus preserving the excited states leading to fluorescence enhancement. The Aβ25–35 sample was prepared by dissolving it in HFIP to remove any preformed aggregates and keeping aliquots at −80 °C. On the day of assay, aliquot of the HFIP dissolved Aβ25–35 (final concentration 100 µM) was lyophilized. Thereafter the lyophilized sample was dissolved in phosphate buffer. A stock solution of the compounds with concentration of 1 mM was prepared in DMSO. The compounds with final concentration of 100 µM were co-incubated with Aβ25–35 for 72 hours at 37 °C. The co-incubated samples were diluted five times. A stock solution of Thioflavin T was prepared in DMSO and final concentration of 15 µM was added. The fluorescence was measured by excitation at 440 nm and emission at 460–550 nm.

Where two headings read alike, the source gives them in different places.

T1 sequence (P56817 46-501): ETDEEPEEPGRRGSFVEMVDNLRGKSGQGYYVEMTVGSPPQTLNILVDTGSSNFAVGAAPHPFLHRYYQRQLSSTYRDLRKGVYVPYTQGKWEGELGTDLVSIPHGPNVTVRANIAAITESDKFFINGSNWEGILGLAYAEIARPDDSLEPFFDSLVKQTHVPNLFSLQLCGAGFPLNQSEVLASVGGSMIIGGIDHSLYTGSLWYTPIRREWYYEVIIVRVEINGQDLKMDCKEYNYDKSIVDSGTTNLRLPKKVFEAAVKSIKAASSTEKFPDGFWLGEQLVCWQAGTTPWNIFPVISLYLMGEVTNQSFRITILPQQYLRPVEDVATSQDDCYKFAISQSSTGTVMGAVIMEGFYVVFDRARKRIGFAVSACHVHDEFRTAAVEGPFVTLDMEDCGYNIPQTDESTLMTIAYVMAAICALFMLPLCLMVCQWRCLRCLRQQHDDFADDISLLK

With `O=c1c(O)c(-c2ccc(O)c(O)c2)oc2c(O)c(O)cc(O)c12` [Gossypetin, reference compound], the inhibition at 1 µM in test [1] amounted to 4.6%.
Turning to `COC(=O)C(Cc1ccccc1)NC(=O)COc1cc(O)c2c(=O)c(-c3ccc4c(c3)OCCO4)coc2c1` (stereo not shown) [ZINC01758814], the “BACE1 inhibition activity (in words)” value in test [1] (compound 1 µM) is listed as “moderate BACE1 inhibition activity”. The inhibition at 1 µM in test [1] (compound 1 µM, 37 °C, 2 hours) worked out at 17%. The “reduction in the fibril formation” value in test [2] is given as “more than 50%”.

As a reminder, the inhibition is the change of the read-out against control, counted positive when it falls.

The values above are taken from PMC6403309, “Hybrid approach to sieve out natural compounds against dual targets in Alzheimer’s Disease” (Scientific Reports, 2019).
